Results from patent US7785900B1, “Glutathione beads and GST fusion proteins” (STC.UNM, priority 2006, dated 2010).
Values belong to the compound of their own block, whether it stands above or below them.

Experiments:
[1] = molecular target: Bcl-2 family proteins; settings: Oltersdorf et al., 2005; read-out: binding constant obtained earlier; cited from earlier work
[2] = system: GST-Bcl-2 fusion proteins; assay: FPA competition assay with FITC-Bid BH3 peptide; type: binding, human; settings: 100 nM GST-Bcl-2 fusion proteins, 5 nM FITC-Bid BH3
Description: 100 nM of GST-Bcl-2 fusion proteins were incubated with various concentrations of EGCG or control compound ECG (“C”) for 2 min in PBS buffer in 50 μL. Then, 5 nM FITC-conjugated-Bid BH3 peptide was added, bringing final volume to 100 μL and final DMSO concentration to 1%. Fluorescence polarization was measured after 20 minutes.
C1.3 FPA competition assay for Bcl-2-binding compounds. The green tea compound […] has been reported to bind Bcl-2 and Bcl-XL (Leone et al., 2003). The ability of EGCG to compete with fluorochrome-labeled BH3 peptides was confirmed by FPA. […] This compound therefore can serve as a positive control when performing high throughput screens of any compound library, including the NIH library.

[3] = molecular target: T1, GST-Rab7 (Homo sapiens, UniProt P51149); assay: Competition of nucleotides with Bodipy-FL-GTP for bead-bound GST-Rab7; type: binding; settings: 10 nM GST-Rab7 preloaded, 1 μM GTP*
T1 construct: made in house; host or cells: bacteria
Source text: The signal to background levels are compatible with homogeneous analysis of the binding of the fluorescent GTP analog. Moreover, the assay is conservative with respect to protein, using <1 pmol of protein per well.

[4] = molecular target: GST-GFP (Schistosoma japonicum, UniProt P08515); assay: biochemical
Description: The standard assay for monitoring the concentration of free glutathione was performed in ten microliters of HPSM buffer with 0.01% dodecyl maltoside added to reduce nonspecific binding. Typically, two microliters of 50 nM GST-GFP and two microliters of bead suspension containing 10,000 beads (as determined using a hemacytometer) were added to six microliters of buffer, with or without some competitor, giving 10 nM GST-GFP in the suspension. The ten microliter assays were gently shaken in wells of a 96 V-shaped well plate (Corning Costar #2897) on a vortex mixer in a cold room for two hours.

[5] = molecular target: T1, GST-Rab7; assay: Bodipy-FL-GTP binding to and dissociation from bead-bound GST-Rab7
Description: A fluorescent GTP-binding assay capable of being monitored by flow cytometry was developed and optimized using GST-Rab7 protein and Bodipy-FL-GTP (GTP*). […] Values are usually expressed as 1000 fluorescence equivalents of fluorescein in free solution (kMESF).
The binding of purified GST-Rab7 to bGSH was measured by using increasing concentrations (1.0-316.0 nM) of GST-Rab7 with a fixed amount of bGSH (−10,000 beads/reaction and excess (1.0 µM) GTP*).
In order to measure the rate of GTP* dissociation from bead-bound Rab7, bGSH were pre-loaded with 100 nM GST-Rab7 and incubated with 1 µM GTP* at 37° C. for 2 h. Dissociation of GTP* from the beads was then measured at 37° C. both for simple dilution with buffer as well as upon addition of 1000-fold higher (1 mM) non-fluorescent GTP (FIG. 6). The calculated half-time was 72.7s. The rate of dissociation in the presence of 1 mM unlabeled GTP alone was 9.6×10^−3s^−1.

[6] = system: Ras superfamily members; assay: Multiplex Bodipy-FL-GTP binding and GTP competition
Description: The Bodipy-FL-GTP binding assay established using wild-type GST-Rab7 was adapted for multiplex, high-throughput assays by Sklar and colleagues.
384-well microplates are configured with 64 control wells (columns 1 and 2 unblocked, and columns 23 and 24 with 1 mM GTP), leaving 320 wells to which test compounds are added as per the Roadmap compound plates supplied. Compounds from the molecular library and GTP controls are added in 5 μl, Bodipy-FL-GTP is added in 5 μl, and GST-G protein-coated beads are added in 5 μl. […] The bead sets are coated by mixing each “address level of red fluorescence” bead type individually in the presence of ˜60 nM GST-small G protein for two hours with 5,000 beads per microliter. The sets are then combined together, centrifuged, and resuspended just before addition to the assay plate. The beads are kept in suspension during the competitive assay using rotation at 22° C. for 2 hours, then the plate is read at room temperature at a cytometer.

T1 sequence (P51149 whole entry): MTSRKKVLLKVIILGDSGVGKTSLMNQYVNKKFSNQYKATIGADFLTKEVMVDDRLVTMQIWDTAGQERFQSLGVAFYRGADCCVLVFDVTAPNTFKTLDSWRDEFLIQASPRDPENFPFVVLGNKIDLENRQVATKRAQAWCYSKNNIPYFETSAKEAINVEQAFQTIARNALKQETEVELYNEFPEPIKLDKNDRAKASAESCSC
GST-GFP, sequence (P08515 2-218, added parts left off): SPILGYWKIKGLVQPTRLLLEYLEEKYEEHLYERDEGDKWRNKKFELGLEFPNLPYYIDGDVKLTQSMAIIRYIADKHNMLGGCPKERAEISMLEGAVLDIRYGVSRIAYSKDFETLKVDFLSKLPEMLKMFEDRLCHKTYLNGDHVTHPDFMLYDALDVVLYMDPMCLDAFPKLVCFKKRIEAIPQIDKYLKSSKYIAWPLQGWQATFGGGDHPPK

SMILES: CN(C)CC[C@H](CSc1ccccc1)Nc1ccc(S(=O)(=O)NC(=O)c2ccc(N3CCN(Cc4ccccc4-c4ccc(Cl)cc4)CC3)cc2)cc1[N+](=O)[O-] [ABT737]
Ki [1]: < 1 nM

SMILES: O=C(O[C@@H]1Cc2c(O)cc(O)cc2O[C@@H]1c1cc(O)c(O)c(O)c1)c1cc(O)c(O)c(O)c1 [ECGC, epigallecatechin]
competition with FITC-Bid BH3 peptide [2]: binds to all six anti-apoptotic members of the Bcl-2-family, to variable extents

EC50 [3]: 560 nM
SMILES: Nc1nc2c(ncn2[C@@H]2O[C@H](COP(=O)(O)OP(=O)(O)O)[C@@H](O)[C@H]2O)c(=O)[nH]1 [GDP]

SMILES: N[C@@H](CCC(=O)N[C@@H](CS)C(=O)NCC(=O)O)C(=O)O [GSH, γ-glu-cys-gly]
EC50 [4]: 39000 nM | Ki [4]: 35000 nM

rate of dissociation ([5]; 1 mM GTP alone, 37° C.): 0.0096 s⁻¹ | Kd ([5]; GTP* binding to GST-Rab7): 94 nM | specific binding affinities ([6]; fourplex): within a factor of two of each other | EC50s ([6]; sixplex, 25 or 50 nM Bodipy-FL-GTP): within the same order of magnitude
SMILES: Cc1cc(C)n2c1C=C1C=CC(CCC(=O)NCCNC(=O)OC3C(COP(=O)(O)OP(=O)(O)OP(=O)(O)O)OC(n4cnc5c(=O)[nH]c(N)nc54)C3O)=[N+]1[B-]2(F)F (stereo not drawn) [GTP*]
